{"source": "paper PMC5149017", "about": "“Synthesis and Acetylcholinesterase Inhibitory Evaluation of 4-(1,3-Dioxoisoindolin-2-yl)-N-Phenyl Benzamide Derivatives as Potential Anti-Alzheimer Agents” (Iranian Journal of Pharmaceutical Research : IJPR, 2016)", "molecular_target": "T1, acetylcholinesterase from electric eel source (AChE, E.C. 3.1.1.7, Type V-S) (Electrophorus electricus, UniProt O42275)", "T1 construct": "Acetylcholinesterase enzyme extracted from electric eel was utilized; purchased Sigma-Aldrich (Steinheim, Germany) Type V-S; host or cells: electric eel tissue (extracted)", "T1 sequence (O42275 24-633)": "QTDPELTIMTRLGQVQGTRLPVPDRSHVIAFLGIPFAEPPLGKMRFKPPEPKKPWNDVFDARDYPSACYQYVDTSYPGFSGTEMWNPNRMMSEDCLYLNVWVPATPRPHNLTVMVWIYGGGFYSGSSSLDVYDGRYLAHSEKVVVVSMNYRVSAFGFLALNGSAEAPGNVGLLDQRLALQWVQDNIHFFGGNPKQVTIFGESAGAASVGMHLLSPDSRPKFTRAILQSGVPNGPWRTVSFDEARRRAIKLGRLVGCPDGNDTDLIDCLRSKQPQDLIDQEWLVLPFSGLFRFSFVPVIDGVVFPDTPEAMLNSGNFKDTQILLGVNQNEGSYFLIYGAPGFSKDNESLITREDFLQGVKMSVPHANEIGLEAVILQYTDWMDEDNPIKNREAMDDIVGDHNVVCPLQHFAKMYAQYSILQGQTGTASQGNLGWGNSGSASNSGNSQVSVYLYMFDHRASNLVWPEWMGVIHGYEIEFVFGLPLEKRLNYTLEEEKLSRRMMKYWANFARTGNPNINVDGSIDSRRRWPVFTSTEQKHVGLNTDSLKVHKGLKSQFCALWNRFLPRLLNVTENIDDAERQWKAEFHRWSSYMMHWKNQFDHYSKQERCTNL", "assay": "biochemical", "settings": "Ellman test, preincubation 15 min at 25 °C, pH 8.0, triplicate, IC50 ± SD, read-out: IC50 (enzymatic assay, acetylcholinesterase inhibition)", "description": "Lyophilized powder of acetylcholinesterase from electric eel source (AChE, E.C. 3.1.1.7, Type V-S, 1000 unit) was purchased from Sigma-Aldrich (Steinheim, Germany). 5,5′-Dithiobis-(2-nitrobenzoic acid, DTNB), potassium dihydrogen phosphate (KH2PO4), dipotassium hydrogen phosphate (K2HPO4), potassium hydroxide (KOH), sodium hydrogen carbonate (NaHCO3), and acetylthiocholine iodide were purchased from Fluka (Buchs, Switzerland).\nAccording to the literature, the Ellman test was performed for assessment of the anticholinesterase activity of intended compounds in-vitro. […] After rapid and immediate mixing the change of absorption was measured at 412 nm.\nThe blank reading contained 3 mL buffer, 200 µL water, 100 µL DTNB and 20 µL substrate. The reaction rates were calculated, and the percent inhibition of test compounds was determined. Each concentration was analyzed in triplicate, and IC50 ± SD values were determined graphically from inhibition curves (log inhibitor concentration vs. percent of inhibition) ([22], [23]).\nAcetylcholinesterase enzyme extracted from electric eel was utilized for assessment of the potency of intended compounds."}
{"smiles": "O=C(Nc1cccc(Cl)c1)c1ccc(N2C(=O)c3ccccc3C2=O)cc1", "note": "[Compound 4a, N-(3-Chlorophenyl)-4-(1,3-dioxoisoindolin-2-yl)benzamide]", "values": [{"measurement": "IC50", "result": "> 250", "unit": "µM"}]}
{"smiles": "O=C(Nc1cccc(F)c1)c1ccc(N2C(=O)c3ccccc3C2=O)cc1", "note": "[Compound 4d, 4-(1,3-Dioxoisoindolin-2-yl)-N-(3-fluorophenyl)benzamide]", "values": [{"measurement": "IC50", "result": "> 250", "unit": "µM"}]}
{"smiles": "COc1ccc(NC(=O)c2ccc(N3C(=O)c4ccccc4C3=O)cc2)cc1", "note": "[Compound 4f, 4-(1,3-Dioxoisoindolin-2-yl)-N-(4-methoxyphenyl)benzamide]", "values": [{"measurement": "IC50", "result": "> 250", "unit": "µM"}]}
{"smiles": "O=C(Nc1ccc(Cl)cc1)c1ccc(N2C(=O)c3ccccc3C2=O)cc1", "note": "[Compound 4b, N-(4-Chlorophenyl)-4-(1,3-dioxoisoindolin-2-yl)benzamide]", "values": [{"measurement": "IC50", "result": "> 250", "unit": "µM"}]}
{"smiles": "O=C(Nc1ccccc1F)c1ccc(N2C(=O)c3ccccc3C2=O)cc1", "note": "[Compound 4c, 4-(1,3-Dioxoisoindolin-2-yl)-N-(2-fluorophenyl)benzamide]", "values": [{"measurement": "IC50", "result": "> 250", "unit": "µM"}]}
{"smiles": "O=C(Nc1ccccc1[N+](=O)[O-])c1ccc(N2C(=O)c3ccccc3C2=O)cc1", "note": "[Compound 4g, 4-(1,3-Dioxoisoindolin-2-yl)-N-(2-nitrophenyl)benzamide]", "values": [{"measurement": "IC50", "result": "1.1 ± 0.25", "unit": "µM"}]}
{"smiles": "COc1cccc(NC(=O)c2ccc(N3C(=O)c4ccccc4C3=O)cc2)c1", "note": "[Compound 4e, 4-(1,3-Dioxoisoindolin-2-yl)-N-(3-methoxyphenyl)benzamide]", "values": [{"measurement": "IC50", "result": "> 250", "unit": "µM"}]}
{"smiles": "O=C(Nc1ccc([N+](=O)[O-])cc1)c1ccc(N2C(=O)c3ccccc3C2=O)cc1", "note": "[Compound 4h, 4-(1,3-Dioxoisoindolin-2-yl)-N-(4-nitrophenyl)benzamide]", "values": [{"measurement": "IC50", "result": "> 250", "unit": "µM"}]}
